Data published in publication PMC5869189 (Frontiers in Immunology, 2018).

Test system: PBMC from healthy, seropositive donors
Assay type: cell-based, human

Row | Sequence | % Responders | Median SFC/10^6 PBMCs (IFN-g)
1 | AALPDALAFARACAMRFGRL [BPSS1599_P26] | 89.6% | 164
2 | AAQKAIDAAKSQVANDNAVA [BPSS1531_P40] | 85.7% | 198
3 | AATAVMAASASAQSVPASRQ [BPSL2522_P2] | 88.6% | 273
4 | AELAARPEYRELQPYARQQA [BPSS1525_P20] | 92.3% | 216
5 | AGAILGAVVTGVALVAAAFV [BPSS1532_P44] | 100.0% | 156
6 | AGTVMNVGNQVSQAAGGIVV [BPSS1532_P54] | 80.6% | 189
7 | AHLVLRSLIDELQSTLRVRL [BPSS0530_P21] | 93.0% | 258
8 | AHNQTLSQNRAQSVVNALAQ [BPSL0999_P16] | 85.1% | 350
9 | AIFSEAKDRFCMDPATRAGN [BPSS1525_P13] | 92.3% | 200
10 | ALPDGRWAYFAVRDHAFMPN [BPSS1599_P11] | 95.8% | 148
11 | ALPIARVAGRNASRTVSLDP [BPSS0530_P18] | 100.0% | 249
12 | APDRRVEVEVVGTQEVQKTT [BPSL2522_P21] | 100.0% | 273
13 | APGGWRLERYECTPGTAHYA [BPSS1599_P28] | 87.5% | 163
14 | APGTPRRLTIETGQLVTRLC [BPSS0530_P15] | 93.0% | 255
15 | ASPTWRAYRLNANLGGIAPP [BPSS1599_P39] | 87.5% | 143
16 | ASTSAQRVLSTGGGVADLIE [BPSS0530_P23] | 90.7% | 267
17 | ATFIVDPDNTIQHVSVNNLN [BPSL2096_P14] | 91.2% | 344
18 | AVNDNWVNGTGEWVWMNGTN [BPSL2522_P4] | 91.4% | 368
19 | AVRDHAFMPNGDWVGSREEA [BPSS1599_P12] | 97.9% | 178
20 | AWAERFDRYLDDADALVASA [BPSL2504_P8] | 91.4% | 317
21 | AWRREHKDLDKLNHYSFGDV [BPSL2096_P10] | 88.2% | 351

Row | Sequence | % Responders | Median SFC/10^6 PBMCs (IFN-g)
22 | CIGKIVGWVITAVSFAAAAF [BPSS1532_P35] | 87.1% | 172
23 | CLALQAARTGGPEMAFGDVE [BPSS0530_P11] | 97.7% | 256
24 | CMDPATRAGNVRPAFIEALG [BPSS1525_P14] | 82.1% | 200
25 | DAAAKLERLLPEQGPRAPLA [BPSS1599_P36] | 89.6% | 143
26 | DAARATGLPGADKQGVFTPS [BPSS1525_P16] | 82.1% | 197
27 | DLDQDGLGLGRLGLRHARGV [BPSS0530_P6] | 90.7% | 288
28 | DNATEAGRAQNRRVEIYLRA [BPSL0999_P20] | 93.6% | 353
29 | DPLPPAMLYHELVGLLGRLS [BPSS0530_P27] | 86.0% | 239
30 | DQYAITPAFTPLLNDLATTL [BPSL0999_P12] | 83.0% | 358
31 | DRELGYDHDDLQTSFEPLAM [BPSS0530_P30] | 88.4% | 310
32 | DRGDQVHICIVDKQWNLKKL [BPSS0530_P34] | 86.0% | 299
33 | DTDGERATLDVPLTAPTAND [BPSS1599_P32] | 87.5% | 148
34 | EAEEREAALERVRAELAARQ [BPSS1599_P23] | 91.7% | 147
35 | EAVELAKKLKFDLMVLRIDR [BPSS1599_P4] | 85.4% | 137
36 | ECTPGTAHYAWARNGSNVRY [BPSS1599_P29] | 97.9% | 162
37 | EFVRAIDVPGLRVERIAYQN [BPSS1599_P41] | 87.5% | 135
38 | EKLRQLLPQQTKLGAVEQIQ [BPSS0530_P37] | 83.7% | 222
39 | ELCWRDAFWTPATANAKCDG [BPSL2522_P6] | 91.4% | 291
40 | ELERQGFQNFQPKRLDDLLP [BPSS1599_P16] | 83.3% | 142
41 | ELQSTLRVRLASTSAQRVLS [BPSS0530_P22] | 88.4% | 247
42 | ELVGLLGRLSVLPGVDEELA [BPSS0530_P28] | 88.4% | 260

Row | Sequence | % Responders | Median SFC/10^6 PBMCs (IFN-g)
43 | ETGQLVTRLCWKSQLRSDEV [BPSS0530_P16] | 81.4% | 266
44 | ETPVLPLRFEDRGDQVHICI [BPSS0530_P33] | 86.0% | 233
45 | EVPDLAVGLDAPGTPRRLTI [BPSS0530_P14] | 95.3% | 279
46 | FAYWHHRAKVEAEEREAALE [BPSS1599_P22] | 95.8% | 169
47 | FDLMVLRIDRGVAAAGYANT [BPSS1599_P5] | 89.6% | 129
48 | FETVTEASFPGKWKIIYFYP [BPSL2096_P4] | 88.2% | 305
49 | FEVESTDPFWKQTLAGSAMA [BPSS0530_P42] | 83.7% | 237
50 | FSKIGETLGQLFRHRAPDSA [BPSS1525_P5] | 89.7% | 178
51 | FTVVAAKPGFNNHEENGQSA [BPSL2096_P2] | 88.2% | 323
52 | GAAQMTAAIAGGALQATTSL [BPSS1531_P21] | 97.1% | 225
53 | GAGIGALAGGGKGAAIGAGV [BPSL0999_P5] | 80.9% | 346
54 | GALGGLLAFRSQTLDPAQAQ [BPSL0280_P29] | 93.1% | 463
55 | GALVGGVTGYNWQAIKNKLA [BPSL0999_P7] | 80.9% | 322
56 | GDWVGSREEALERLHTDYAW [BPSS1599_P13] | 95.8% | 182
57 | GGERMSDEHASVLAQEAPAR [BPSS1531_P30] | 91.4% | 213
58 | GGWNVVIGEPELERQGFQNF [BPSS1599_P15] | 87.5% | 179
59 | GKGAAIGAGVGALVGGVTGY [BPSL0999_P6] | 91.5% | 357
60 | GPEMAFGDVELASRYRAVST [BPSS0530_P12] | 97.7% | 308
61 | GRQVYEATLCAIFSEAKDRF [BPSS1525_P12] | 84.6% | 201
62 | GVAAAGYANTRDGFAPGHLS [BPSS1599_P6] | 85.4% | 129
63 | GVALVAAAFVGASAVKAVAS [BPSS1532_P45] | 83.9% | 142

Row | Sequence | % Responders | Median SFC/10^6 PBMCs (IFN-g)
64 | HAEQALELRGINKPVLSNDE [BPSS1531_P26] | 85.7% | 219
65 | HFQQLERHLAHQASLRLGQT [BPSS0530_P3] | 83.7% | 253
66 | HQASLRLGQTSNHGWGFTLL [BPSS0530_P4] | 83.7% | 239
67 | IFAFSAAMPAEKLRQLLPQQ [BPSS0530_P36] | 95.3% | 298
68 | IGSDKYNDRLSLRRAQAVKS [BPSL2522_P15] | 97.1% | 290
69 | IQHVSVNNLNVGRSPEEILR [BPSL2096_P15] | 82.4% | 314
70 | IRLRADTLMGAELAARPEYR [BPSS1525_P19] | 82.1% | 197
71 | ITNYFTGLQTVANNAADPSA [BPSL0280_P12] | 82.8% | 557
72 | IVEFAKLAKQFEERDAVLLG [BPSL2096_P7] | 85.3% | 304
73 | KGELIDQLGVRDKEAGVALR [BPSL2096_P12] | 97.1% | 317
74 | KLNHYSFGDVKGELIDQLGV [BPSL2096_P11] | 88.2% | 320
75 | KLTMLAHDAMMSAAAQDRSI [BPSS1531_P19] | 88.6% | 226
76 | KLVDLQLPGARLNALPNPPR [BPSS0530_P39] | 86.0% | 221
77 | KQTLAGSAMALRIVGDFPDL [BPSS0530_P43] | 100.0% | 299
78 | KVYTEGKGKRNPVTGNTCKQ [BPSL2522_P18] | 94.3% | 288
79 | LAGVQVVQSNGNYSVFLSGG [BPSL0280_P22] | 93.1% | 464
80 | LASRYRAVSTEVPDLAVGLD [BPSS0530_P13] | 97.7% | 267
81 | LEGAFYNGRRQPAPNWLGAF [BPSS1599_P9] | 85.4% | 126
82 | LERLHTDYAWGGWNVVIGEP [BPSS1599_P14] | 95.8% | 157
83 | LFDFDKAVLKPAGKQKLDEL [BPSL2522_P11] | 85.7% | 408
84 | LGAMVSRAIALEGAFYNGRR [BPSS1599_P8] | 89.6% | 99
